The test system of series [1] is T. mentagrophytes. Kind of series: MIC, dose-dependent solid media assay. The class given is cell-based, Trichophyton mentagrophytes. The conditions noted are these: Trichophyton mentagrophytes.
In series [2] the test system is P. chrysogenum. Kind of series: MIC, dose-dependent solid media assay. The class given is cell-based, Penicillium chrysogenum. The conditions noted are these: Penicillium chrysogenum.
Series [3] concerns A. flavus. Kind of series: MIC, dose-dependent solid media assay. The class given is cell-based, Aspergillus flavus. The conditions noted are these: Aspergillus flavus.
Series [4] concerns C. albicans. Kind of series: MIC, microbroth dilution. Format: cell-based, Candida albicans. The conditions noted are these: Candida albicans.
The subject of series [5] is S. cerevisiae. Kind of series: MIC, microbroth dilution. The conditions noted are these: Saccharomyces cerevisiae. Format: cell-based, Saccharomyces cerevisiae.
Series [6] concerns B. cereus. Kind of series: MIC, microbroth dilution. Format: cell-based, Bacillus cereus. The conditions noted are these: Bacillus cereus.
Series [7] deals with Methicillin resistant Staphylococcus aureus. Kind of series: MIC, microbroth dilution. The conditions noted are these: Staphylococcus aureus, S. aureus (MRSA). Format: cell-based.
For series [8], the system named is P. aeruginosa. Kind of series: MIC, microbroth dilution. Format: cell-based, Pseudomonas aeruginosa. The conditions noted are these: Pseudomonas aeruginosa.
For series [9], the system named is E. coli. Kind of series: MIC, microbroth dilution. The class given is cell-based, Escherichia coli. The conditions noted are these: Escherichia coli.
In series [10] the test system is rat myoblast cells (H9c2). Kind of series: Cell viability assay against H9c2 cell line. The class given is cell-based. The conditions noted are these: concentrations up to 100 μM, 24 h. The method, then: (§1) In general, very little growth inhibition was observed against either Gram-positive or Gram-negative bacterial pathogens. […] The SAR for the antibacterial is dissimilar to that observed for the antifungal properties.
(§2) Figure 3 (A) Cell viability assay against H9c2 cell line at 100 μM for 24 h (normalized to PBS no treatment), (B) Hemolytic assay at 50 and 100 μM for 1 h (normalized to triton X-100 positive control). Error bars in both graphs represent standard error of mean (SEM) of replicates (n = 3).

Series [11] can be described thus: Hemolytic assay. The class given is cell-based. The conditions noted are these: 50 and 100 μM for 1 h. The procedure: as §1, §2

Where only a bound is given, the exact number is not on record here.

Turning to `OB1OCC=C1c1cccc(Br)c1` [Compound 6i], the MIC is 25 µg/mL in series [1]; 105 µM in series [1] (value in parentheses); 10.4 ± 2 µg/mL in series [2]; 43.7 µM in series [2] (value in parentheses); 25 µg/mL in series [3]; 105 µM in series [3] (value in parentheses). The MIC is more than 50 µg/mL in series [4]; more than 210 µM in [4] (value in parentheses); 50 µg/mL in series [5]; 210 µM in [5] (value in parentheses); more than 50 µg/mL in [6]; more than 210 µM in [6] (value in parentheses). The MIC in [7] was more than 50 µg/mL; in [7] (value in parentheses), more than 210 µM; in [8] it was more than 50 µg/mL; in [8] (value in parentheses), more than 210 µM; in [9], more than 50 µg/mL; in [9] (value in parentheses), more than 210 µM. In addition, in series [10], the “cytotoxic effects against rat myoblast cells (H9c2)” value (“cytotoxic effects” below) is listed as “none”. For the same compound, the hemolytic activity result in series [11] is listed as “none possessed hemolytic activity”.
For the compound `OB1OCC=C1c1ccc2occc2c1` [Compound 6r], the MIC in series [1] was 50 µg/mL; in series [1] (value in parentheses), 250 µM; in series [2] it was 25 µg/mL; in [2] (value in parentheses) it was 125 µM; in [3], 50 µg/mL; in series [3] (value in parentheses), 250 µM. Moreover, the MIC in series [4] was more than 50 µg/mL; in series [4] (value in parentheses), more than 250 µM; in series [5], 5.2 ± 1 µg/mL; in series [5] (value in parentheses) it was 26 µM; in [6], more than 50 µg/mL; in series [6] (value in parentheses), more than 250 µM. The MIC in [7] is more than 50 µg/mL; in series [7] (value in parentheses), more than 250 µM; in series [8] it was more than 50 µg/mL; in series [8] (value in parentheses), more than 250 µM; in series [9], more than 50 µg/mL; in [9] (value in parentheses), more than 250 µM. Further, the “cytotoxic effects” value in [10] was “none”. In addition, in [11], the hemolytic activity result is “none possessed hemolytic activity”.
With `Cc1cccc(C2=CCOB2O)c1` [Compound 6u], the MIC in [1] is 42 ± 8 µg/mL; in [1] (value in parentheses) it was 241 µM; in series [2], 25 µg/mL; in series [2] (value in parentheses) it was 144 µM; in [3], 33 ± 8 µg/mL; in series [3] (value in parentheses), 190 µM. The MIC in [4] is more than 50 µg/mL; in series [4] (value in parentheses), more than 287 µM; in series [5], 21 ± 4 µg/mL; in series [5] (value in parentheses), 121 µM; in series [6], more than 50 µg/mL; in [6] (value in parentheses), more than 287 µM. The MIC in series [7] was more than 50 µg/mL; in series [7] (value in parentheses), more than 287 µM; in series [8] it was more than 50 µg/mL; in series [8] (value in parentheses), more than 287 µM; in series [9] it was more than 50 µg/mL; in series [9] (value in parentheses) it was more than 287 µM. Moreover, the “cytotoxic effects” value in series [10] was “none”. In addition, the hemolytic activity result in series [11] is reported as “none possessed hemolytic activity”.
With `OB1OCC=C1c1cccc(I)c1` [Compound 6l], the MIC in series [1] is 25 µg/mL; in [1] (value in parentheses), 87.4 µM; in series [2], 6.25 µg/mL; in series [2] (value in parentheses) it was 21.9 µM; in series [3], 25 µg/mL; in series [3] (value in parentheses), 87.4 µM. In addition, the MIC in series [4] is more than 50 µg/mL; in series [4] (value in parentheses) it was more than 175 µM; in series [5] it was more than 50 µg/mL; in series [5] (value in parentheses), more than 175 µM; in series [6] it was more than 50 µg/mL; in series [6] (value in parentheses), more than 175 µM. Moreover, the MIC was more than 50 µg/mL in [7]; more than 175 µM in series [7] (value in parentheses); more than 50 µg/mL in series [8]; more than 175 µM in series [8] (value in parentheses); more than 50 µg/mL in [9]; more than 175 µM in series [9] (value in parentheses).
`OB1OCC=C1c1cccc(Cl)c1` [Compound 6f]: the MIC was 25 µg/mL in series [1]; 129 µM in series [1] (value in parentheses); 12.5 µg/mL in series [2]; 64.4 µM in series [2] (value in parentheses); 25 µg/mL in [3]; 129 µM in series [3] (value in parentheses). Besides, the MIC in [4] is more than 50 µg/mL; in series [4] (value in parentheses), more than 258 µM; in [5] it was 21 ± 4 µg/mL; in series [5] (value in parentheses) it was 108 µM; in [6], more than 50 µg/mL; in [6] (value in parentheses), more than 258 µM. For the same compound, the MIC was more than 50 µg/mL in series [7]; more than 258 µM in [7] (value in parentheses); more than 50 µg/mL in series [8]; more than 258 µM in [8] (value in parentheses); more than 50 µg/mL in series [9]; more than 258 µM in series [9] (value in parentheses).
As to `COc1ccccc1C1=CCOB1O` [Compound 6p], the MIC is more than 50 µg/mL in [1]; more than 263 µM in series [1] (value in parentheses); more than 50 µg/mL in series [2]; more than 263 µM in series [2] (value in parentheses); more than 50 µg/mL in series [3]; more than 263 µM in [3] (value in parentheses). For the same compound, the MIC in series [4] was more than 50 µg/mL; in series [4] (value in parentheses) it was more than 263 µM; in series [5] it was more than 50 µg/mL; in series [5] (value in parentheses) it was more than 263 µM; in [6] it was more than 50 µg/mL; in series [6] (value in parentheses), more than 263 µM. For the same compound, the MIC in series [7] was more than 50 µg/mL; in [7] (value in parentheses) it was more than 263 µM; in series [8], more than 50 µg/mL; in series [8] (value in parentheses), more than 263 µM; in series [9] it was more than 50 µg/mL; in series [9] (value in parentheses) it was more than 263 µM.
Turning to `OB1OCc2cc(F)ccc21` [Compound 1, tavaborole, reference compound], the MIC was 0.78 µg/mL in series [1]; 5.14 µM in series [1] (value in parentheses); 1 ± 0.3 µg/mL in [2]; 6.58 µM in series [2] (value in parentheses); 0.78 µg/mL in series [3]; 5.14 µM in [3] (value in parentheses). In addition, the MIC is 2.3 ± 0.8 µg/mL in [4]; 15.1 µM in series [4] (value in parentheses); 0.26 ± 0.06 µg/mL in series [5]; 1.71 µM in series [5] (value in parentheses); more than 50 µg/mL in [6]; more than 329 µM in series [6] (value in parentheses). Besides, the MIC in series [7] was approximately 50 µg/mL; in series [7] (value in parentheses) it was more than 329 µM; in [8] it was more than 50 µg/mL; in [8] (value in parentheses), more than 329 µM; in series [9], 17 ± 4 µg/mL; in series [9] (value in parentheses) it was 112 µM.
As to `CC(C)(C)c1ccc(C2=CCOB2O)cc1` [Compound 6w], the MIC in [1] was more than 50 µg/mL; in [1] (value in parentheses), more than 232 µM; in series [2], 12.5 µg/mL; in series [2] (value in parentheses), 57.9 µM; in series [3], more than 50 µg/mL; in [3] (value in parentheses), more than 232 µM. Moreover, the MIC was more than 50 µg/mL in series [4]; more than 232 µM in series [4] (value in parentheses); more than 50 µg/mL in series [5]; more than 232 µM in [5] (value in parentheses); more than 50 µg/mL in [6]; more than 232 µM in [6] (value in parentheses). The MIC in series [7] was more than 50 µg/mL; in series [7] (value in parentheses), more than 232 µM; in series [8] it was more than 50 µg/mL; in series [8] (value in parentheses), more than 232 µM; in series [9], more than 50 µg/mL; in series [9] (value in parentheses), more than 232 µM. In [10], the “cytotoxic effects” value is listed as “none”. Moreover, in series [11], the hemolytic activity result was “none possessed hemolytic activity”.
With `OB1OCC=C1c1ccccc1Br` [Compound 6j], the minimal inhibitory concentration (MIC) in series [1] is more than 50 µg/mL; in series [1] (value in parentheses) it was more than 210 µM; in series [2] it was more than 50 µg/mL; in [2] (value in parentheses), more than 210 µM; in series [3], more than 50 µg/mL; in [3] (value in parentheses) it was more than 210 µM. Also, the MIC was more than 50 µg/mL in series [4]; more than 210 µM in [4] (value in parentheses); more than 50 µg/mL in series [5]; more than 210 µM in series [5] (value in parentheses); more than 50 µg/mL in [6]; more than 210 µM in series [6] (value in parentheses). In addition, the MIC in [7] is more than 50 µg/mL; in [7] (value in parentheses), more than 210 µM; in series [8], more than 50 µg/mL; in series [8] (value in parentheses), more than 210 µM; in series [9], more than 50 µg/mL; in [9] (value in parentheses), more than 210 µM.

Source of the values: article PMC10945556, “Design, Synthesis, and Antifungal Activity of 3-Substituted-2(5H)-Oxaboroles” (ACS Medicinal Chemistry Letters, 2024).
